The results in this text go back to patent publication US20240279202A1 (NURIX THERAPEUTICS, INC., priority 2021, published 2024).

The assay has as its target T1, ITK (Mus musculus, UniProt Q03526).
T1 construct: mice were sacrificed and splenocytes were isolated and used to prepare protein lysates; from tissue; host or cells: mouse splenocytes (spleen) after oral dosing
T1 sequence (Q03526 1-625): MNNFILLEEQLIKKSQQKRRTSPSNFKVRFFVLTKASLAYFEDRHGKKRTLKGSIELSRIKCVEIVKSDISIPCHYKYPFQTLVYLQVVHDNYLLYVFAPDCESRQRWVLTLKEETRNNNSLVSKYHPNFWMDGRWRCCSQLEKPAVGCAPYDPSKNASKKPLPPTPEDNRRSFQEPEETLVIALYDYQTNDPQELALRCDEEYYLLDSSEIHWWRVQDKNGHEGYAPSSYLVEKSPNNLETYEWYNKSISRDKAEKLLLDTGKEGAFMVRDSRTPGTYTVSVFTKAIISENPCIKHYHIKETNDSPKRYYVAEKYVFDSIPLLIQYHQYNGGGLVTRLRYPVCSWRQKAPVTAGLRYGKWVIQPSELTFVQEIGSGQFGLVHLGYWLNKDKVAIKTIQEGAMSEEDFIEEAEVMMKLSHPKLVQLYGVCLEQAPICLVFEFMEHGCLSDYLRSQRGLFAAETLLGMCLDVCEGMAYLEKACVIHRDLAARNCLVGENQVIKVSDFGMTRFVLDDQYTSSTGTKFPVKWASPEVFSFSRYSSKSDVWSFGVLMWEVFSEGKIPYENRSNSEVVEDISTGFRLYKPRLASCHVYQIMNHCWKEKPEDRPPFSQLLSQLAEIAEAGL
Nature of the assay: Mouse PD assay for ITK degradation (Western blot, splenocytes after oral administration). Format: in vivo. To be noted: for ITK (%) 90 mpk PO, 6 h: percent ITK remaining in mouse splenocytes relative to vehicle; for ITK degradation in vivo at 6 hours (FIG. 3A, FIG. 4A) / ITK degradation in vivo at 24 hours (FIG. 3A, FIG. 4A): mice, oral, splenocytes, Western blot. How it is done: Compounds 1, 3, 7, and 42 were formulated and administered at 90 mg/kg to mice by oral gavage (PO). Blood was collected at defined time points (after 1, 2, and 6 hours) after compounds administration to determine PK parameters. Concentration increased through 6 hours. Six hours later mice were sacrificed and splenocytes were isolated and used to prepare protein lysates. Total protein levels were determined in the lysates using the BCA assay according to standard methods. Equal amounts of protein were then analyzed by Western blot to determine the level of ITK expression in each sample. ITK band intensities were measured using Alpha View software and the percent of ITK remaining in each test animal was determined relative to the mean of ITK levels in vehicle control samples.
After 6 hours, splenocytes cells were harvested. ITK was evaluated by Western blotting.
Compounds 43, 4, 5, 10, 11, 12, 44, 14, 3, and 13 were administered to mice orally. After 6 hours, splenocytes cells were harvested. ITK was evaluated by Western blotting. Media was removed and cell pellets were lysed in 100 uL lysis buffer (RIPA buffer (Fisher, PI89901), cOmplete Mini EDTA-free protease inhibitor (Sigma 11836170001), Protease Inhibitor Cocktail (Sigma, P2714), Phosphatase Inhibitor Cocktail 2 and 3 (Sigma, P5726 and P0044), Benzonase (Sigma, E1014)). Cells were lysed overnight at −20° C. Following thaw, cells were centrifuged for 10 min at 13000 rpm, then transferred to new tube. Protein levels were determined by BCA Assay performed according to manufacturer's protocol (EMID Millipore, cat. no. 71285-3). Samples were combined with (4×) LDS Sample Buffer and (10×) Reducing Agent and H2O to equally load 20 ug protein per lane of a 26-well NuPAGE 4-12% Bis-Tris protein gel (1.0 mm, Thermo cat. no. NP0326). Samples were separated by running gels at constant 150 V in NuPAGE MES SDS Running Buffer. Following electrophoresis, proteins were transferred to nitrocellulose membranes using an iBlot Gel Transfer Device and iBlot Gel Transfer Stacks (Thermo cat. no. IB21001 and IB301001) and transfer method P3 (20V for 7 min). Membranes were blocked for 1 hr in 5% milk solution (TBS (0.2% Tween-20)). Following blocking, membranes were incubated with primary antibody (1:1000 CST ITK (2F12) #2380) overnight at 4° C. with gentle shaking. Blots were washed 2× in TBS (0.2% Tween-20), 30 min per wash. Following washes, blots were incubated in secondary HRP-conjugated antibody (Promega anti-Mouse IgG (H+L) HRP cat. no. W4021), 1:5000 in 5% milk solution (TBS (0.2% Tween-20)), for 1 hr at room temperature with gentle shaking. Blots were washed 2× in TBS (0.2% Tween-20), 30 min per wash. Blots were incubated with 1:1 mix of ECL reagents 1 & 2 (Amersham ECL Western Blotting Detection Reagent, cat. no. RPN2106) for 2 min at room temperature. Bands were visualized using a Protein Simple imager. Blots were then re-probed with a combination of anti-actin antibody (Sigma Monoclonal Mouse Anti-3-Actin (clone AC-15), cat. no. A5441) and secondary H1RP-conjugated antibody (Promega anti-Mouse IgG (H+L) HRP, cat. no. W4021) and similar steps were taken for incubation, wash, detection and visualization steps as above. The data was analyzed using Alpha View software. The densitometric reading for each sample band was normalized to that of the corresponding actin band per lane. Approximate % ITK remaining per sample was calculated as follows: […]
Once % ITK remaining has been calculated for each sample, groups are averaged together to show an means % ITK normalized to actin and relative to control.
Compounds 16, 17, and 18 were administered to mice orally. After 6 hours or 24 hours, splenocytes cells were harvested. ITK was evaluated by Western blotting. Plasma concentrations were determined by LC/MS/MS. Plasma samples were protein precipitated by addition of 100 μl of acetonitrile containing 50 ng/ml of internal standard. The resulting mixture was vortexed and centrifuged at 4000 RPM for 5 minutes. […]
Background: A western blot detects proteins with antibodies after separation by electrophoresis.

Structures can show the parent of a compound that is named as a salt.

Consider `C[C@@H](C(=O)N(C)c1ccc2cc(-c3n[nH]c4c3C[C@@H]3C(F)(F)[C@]3(C)C4)[nH]c2c1)N1CCN(C[C@H]2CCN(c3ccc4c(c3)C(=O)N(C3CCC(=O)NC3=O)C4=O)C2)CC1` (stereo partly drawn) [Compound 9, (2S)—N-(2-((4aS,5aR)-5,5-difluoro-5a-methyl-1,4,4a,5,5a,6-hexahydrocyclopropa[f]indazol-3-yl)-1H-indol-6-yl)-2-(4-(((3R)-1-(2-(2,6-dioxopiperidin-3-yl)-1,3-dioxoisoindolin-5-yl)pyrrolidin-3-yl)methyl)piperazin-1-yl)-N-methylpropanamide], for which the “ITK (%) 90 mpk PO, 6 h” value was 49.3%.
For the compound `C[C@@H](C(=O)N(C)c1ccc2cc(-c3n[nH]c4c3CCC(C)(C)C4)[nH]c2c1)N1CCN(CC2CCN(c3ccc(C4CCC(=O)NC4=O)cn3)CC2)CC1` (stereo partly drawn) [Compound 10, (2S)—N-(2-(6,6-dimethyl-4,5,6,7-tetrahydro-1H-indazol-3-yl)-1H-indol-6-yl)-2(4-((1-(5-(2,6-dioxopiperidin-3-yl)pyridin-2-yl)piperidin-4-yl)methyl)piperazin-1-yl)-N-methylpropanamide], the “ITK degradation in vivo at 6 hours (FIG. 3A, FIG. 4A)” value (“ITK degradation in vivo at 6 hours” for short) is listed as “degraded ITK in vivo” and the “ITK (%) 90 mpk PO, 6 h” value was 11%.
As for `C[C@@H](C(=O)N(C)c1ccc2cc(-c3n[nH]c4c3CCC(C)(C)C4)[nH]c2c1)N1CCN(CC2CCN(c3ccc(N4CCC(=O)NC4=O)cn3)CC2)CC1` [Compound 11, (S)—N-(2-(6,6-dimethyl-4,5,6,7-tetrahydro-1H-indazol-3-yl)-1H-indol-6-yl)-2-(4-((1-(5-(2,4-dioxotetrahydropyrimidin-1(2H)-yl)pyridin-2-yl)piperidin-4-yl)methyl)piperazin-1-yl)-N-methylpropanamide], the “ITK degradation in vivo at 6 hours” value was “degraded ITK in vivo” and the “ITK (%) 90 mpk PO, 6 h” value stood at 116%.
With `C[C@@H](C(=O)N(C)c1ccc2cc(-c3n[nH]c4c3CCC(C)(C)C4)[nH]c2c1)N1CCN(C[C@H]2CCN(c3ccc4c(c3)CN(C3CCC(=O)NC3=O)C4=O)C2)CC1` (stereo partly drawn) [Compound 12, (2S)—N-(2-(6,6-dimethyl-4,5,6,7-tetrahydro-1H-indazol-3-yl)-1H-indol-6-yl)-2-(4-(((3R)-1-(2-(2,6-dioxopiperidin-3-yl)-1-oxoisoindolin-5-yl)pyrrolidin-3-yl)methyl)piperazin-1-yl)-N-methylpropanamide], the “ITK degradation in vivo at 6 hours” value is “degraded ITK in vivo” and the “ITK (%) 90 mpk PO, 6 h” value came out at 82%.
For `Cn1c(=O)n(C2CCC(=O)NC2=O)c2cccc(N3CCC(CN4CCC5(CC4)CCN(c4ccc6cc(-c7n[nH]c8c7CCC(C)(C)C8)[nH]c6c4)C5=O)CC3)c21` (centres unmarked) [Compound 13, 3-(4-(4-((2-(2-(6,6-dimethyl-4,5,6,7-tetrahydro-1H-indazol-3-yl)-1H-indol-6-yl)-1-oxo-2,8-diazaspiro[4.5]decan-8-yl)methyl)piperidin-1-yl)-3-methyl-2-oxo-2,3-dihydro-1H-benzo[d]imidazol-1-yl)piperidine-2,6-dione], the “ITK degradation in vivo at 6 hours” value is recorded as “degraded ITK in vivo” and the “ITK (%) 90 mpk PO, 6 h” value came to 15%.
For `Cn1c(=O)n(C2CCC(=O)NC2=O)c2ccc(N3CCC(CN4CCC5(CC4)CCN(c4ccc6cc(-c7n[nH]c8c7CCC(C)(C)C8)[nH]c6c4)C5=O)CC3)cc21` (centres unmarked) [Compound 14, 3-(5-(4-((2-(2-(6,6-dimethyl-4,5,6,7-tetrahydro-1H-indazol-3-yl)-1H-indol-6-yl)-1-oxo-2,8-diazaspiro[4.5]decan-8-yl)methyl)piperidin-1-yl)-3-methyl-2-oxo-2,3-dihydro-1H-benzo[d]imidazol-1-yl)piperidine-2,6-dione], the “ITK degradation in vivo at 6 hours” value was “degraded ITK in vivo” and the “ITK (%) 90 mpk PO, 6 h” value was determined as 47%.
For the compound `C[C@@]12Cc3[nH]nc(-c4cc5ccc(N6CCC7(CCN(Cc8ccc9c(c8)C(=O)N(C8CCC(=O)NC8=O)C9=O)CC7)C6=O)cc5[nH]4)c3C[C@@H]1C2(F)F` (stereo partly drawn) [Compound 15, 5-((2-(2-((4aS,5aR)-5,5-difluoro-5a-methyl-1,4,4a,5,5a,6-hexahydrocyclopropa[f]indazol-3-yl)-1H-indol-6-yl)-1-oxo-2,8-diazaspiro[4.5]decan-8-yl)methyl)-2-(2,6-dioxopiperidin-3-yl)isoindoline-1,3-dione hydrochloride], the “ITK (%) 90 mpk PO, 6 h” value was 18.3%.
Turning to `Cn1c(=O)n(C2CCC(=O)NC2=O)c2cccc(N3CCC(CN4CCC5(CC4)CCN(c4ccc6cc(-c7n[nH]c8c7C[C@@H]7C(F)(F)[C@]7(C)C8)[nH]c6c4)C5=O)CC3)c21` (stereo partly drawn) [Compound 16, 3-(4-(4-((2-(2-((4aS,5aR)-5,5-difluoro-5a-methyl-1,4,4a,5,5a,6-hexahydrocyclopropa[f]indazol-3-yl)-1H-indol-6-yl)-1-oxo-2,8-diazaspiro[4.5]decan-8-yl)methyl)piperidin-1-yl)-3-methyl-2-oxo-2,3-dihydro-1H-benzo[d]imidazol-1-yl)piperidine-2,6-dione], the “ITK degradation in vivo at 6 hours” value is listed as “degraded ITK in vivo” and the “ITK (%) 90 mpk PO, 6 h” value stood at 77%.
As for `C[C@@H](C(=O)N(C)c1ccc2cc(-c3n[nH]c4c3C[C@@H]3C(F)(F)[C@]3(C)C4)[nH]c2c1)N1CCN(CC2CCN(c3ccc(C4CCC(=O)NC4=O)cn3)CC2)CC1` (stereo partly drawn) [Compound 17, (2S)—N-(2-((4aS,5aR)-5,5-difluoro-5a-methyl-1,4,4a,5,5a,6-hexahydrocyclopropa[f]indazol-3-yl)-1H-indol-6-yl)-2-(4-((1-(5-(2,6-dioxopiperidin-3-yl)pyridin-2-yl)piperidin-4-yl)methyl)piperazin-1-yl)-N-methylpropanamide], the “ITK degradation in vivo at 6 hours” value is “degraded ITK in vivo”; the “ITK degradation in vivo at 24 hours (FIG. 3A, FIG. 4A)” value was “degraded ITK”; the “ITK (%) 90 mpk PO, 6 h” value was 20%.
In the case of `C[C@@H](C(=O)N(C)c1ccc2cc(-c3n[nH]c4c3C[C@@H]3C(F)(F)[C@]3(C)C4)[nH]c2c1)N1CCN(CC2CCN(c3ccc(N4CCC(=O)NC4=O)cn3)CC2)CC1` [Compound 18, (S)—N-(2-((4aS,5aR)-5,5-difluoro-5a-methyl-1,4,4a,5,5a,6-hexahydrocyclopropa[f]indazol-3-yl)-1H-indol-6-yl)-2-(4-((1-(5-(2,4-dioxotetrahydropyrimidin-1(2H)-yl)pyridin-2-yl)piperidin-4-yl)methyl)piperazin-1-yl)-N-methylpropanamide], the “ITK degradation in vivo at 6 hours” value was “degraded ITK in vivo”; the “ITK degradation in vivo at 24 hours (FIG. 3A, FIG. 4A)” value was “degraded ITK”; the “ITK (%) 90 mpk PO, 6 h” value is 14%.
